These results are taken from US9616051B2, “Drug targets to overcome de novo drug-resistance in multiple myeloma” (H. Lee Moffitt Cancer Center and Research Institute, Inc., priority 2008, dated 2017).

Molecules are shown by their SMILES.

The subject of assay [1] is p53. Nature of the assay: p53 nuclear export in low-density myeloma cells (nuclear fraction Western blot). Conditions: H929 at low density (log growth), 25 μM, 20 hours. The format is cell-based, human. The method, then:
FIG. 14 is a blot of lead compounds tested to determine if nuclear export inhibition was specific to topo IIα protein. p53 was cycled from the nucleus into the cytoplasm in MM cells cultured at log growth conditions. Cells grown at log-phase concentrations were treated with the lead NES inhibitors (25 μM) or a leptomycin control for 20 hours and chemically fractionated. Nuclei were assayed by SDS-PAGE Western blot analysis for p53 protein (anti-p53 (DO-1), Santa Cruz Biotech, Inc). […] Lamin A/C (anti-lamin A/C, BD Pharmingen) is shown as a loading control.
Cells grown at low concentrations were treated with the lead NES inhibitors (25 μM) or a leptomycin B (5 nM) control for 20 hours and chemically fractionated. Nuclei were assayed by SDS-PAGE Western blot analysis for p53 protein.

For assay [2], the system named is NCI-H929 (H929). Description: CT-Glo cytotoxicity assay, H929 cells. The format is cell-based, human. To be noted: Homo sapiens, NCI-H929, 72-h CT-Glo, average ± SD. The text has this: Compounds identified in Example 1 as the top scoring potential inhibitors for each of the two NES (20 each) were obtained from NCI and structures of these molecules confirmed using NMR and mass spectroscopy analysis, seen in FIGS. 4(A)-(C) and 5(A)-(D). The potential inhibitors were followed up using in vitro model cell cultures. MM cell lines NCI-H929 (H929) and RPMI-8226 (8226) were obtained from and tested for authenticity by the American Type Culture Collection (Manassas, Va.). All cell lines were grown as described previously (Turner, et al., Human topoisomerase IIalpha nuclear export is mediated by two CRM-1-dependent nuclear export signals. J Cell Sci 2004; 117: 3061-71).
(§1) The molecules with the highest docking scores were assayed for IC50 values. Cultures were tested for cytotoxicity using the CellTiter-Glo assay (CT-Glo cytotoxicity assay; Promega, Madison, Wis.), a luminescence-based homogeneous method for determining the number of viable cells in culture based on quantitation of the ATP present, which signals the presence of metabolically active cells (Corsino, et al., A novel class of cyclin-dependent kinase inhibitors identified by molecular docking act through a unique mechanism. J Biol Chem 2009; 284: 29945-55; Homsi, et al., Src activation in melanoma and Src inhibitors as therapeutic agents in melanoma. Melanoma Res 2009; 19: 167-75). All cells were assayed at log-phase growth conditions. Luminescence was measured with a Synergy 4 microplate reader (Bio-Tek Instruments, Inc., Winooski, Vt.). IC50 values were determined using a sigmoidal equilibrium model regression using XLfit version 5.2 (ID Business Solutions Ltd., Surrey, UK) (Corsino, et al., A novel class of cyclin-dependent kinase inhibitors identified by molecular docking act through a unique mechanism. J Biol Chem 2009; 284: 29945-55).

The subject of assay [3] is SK-UT. Description: CT-Glo cytotoxicity assay, SK-UT cells. The format is cell-based. Conditions: 72-h CT-Glo, average ± SD. On the procedure: as §1
For assay [4], the target named is T1, topo IIα (Homo sapiens, UniProt P11388).
T1 construct: effect on the intracellular location of topo IIα in treated MM cells; endogenous in cells; host or cells: human multiple myeloma cells NCI-H929
Nature of the assay: Immunofluorescence microscopy of intracellular location of topo IIα. It counts as cell-based. To be noted: 25 μM NES inhibitor. The method, then:
Slides were viewed with a fully automated, upright Zeiss Axio-ImagerZ.1 microscope (Carl Zeiss A G, Oberkochen, Germany). Briefly, the DAPI image was used as a mask to segment the nuclear region from the Alexa 594 image. The remaining portion of the Alexa 594 image represents the cytosol, and individual nucleus and cytosol images were analyzed.
H929 cells were mock treated with 0.1% DMSO in media or with 25 μM of NES inhibitor. The high density control cells, seen in FIG. 9(A) show high levels of topo II staining outside the nucleus, evidencing export of topo II from the nucleus.

T1 sequence (P11388 whole entry): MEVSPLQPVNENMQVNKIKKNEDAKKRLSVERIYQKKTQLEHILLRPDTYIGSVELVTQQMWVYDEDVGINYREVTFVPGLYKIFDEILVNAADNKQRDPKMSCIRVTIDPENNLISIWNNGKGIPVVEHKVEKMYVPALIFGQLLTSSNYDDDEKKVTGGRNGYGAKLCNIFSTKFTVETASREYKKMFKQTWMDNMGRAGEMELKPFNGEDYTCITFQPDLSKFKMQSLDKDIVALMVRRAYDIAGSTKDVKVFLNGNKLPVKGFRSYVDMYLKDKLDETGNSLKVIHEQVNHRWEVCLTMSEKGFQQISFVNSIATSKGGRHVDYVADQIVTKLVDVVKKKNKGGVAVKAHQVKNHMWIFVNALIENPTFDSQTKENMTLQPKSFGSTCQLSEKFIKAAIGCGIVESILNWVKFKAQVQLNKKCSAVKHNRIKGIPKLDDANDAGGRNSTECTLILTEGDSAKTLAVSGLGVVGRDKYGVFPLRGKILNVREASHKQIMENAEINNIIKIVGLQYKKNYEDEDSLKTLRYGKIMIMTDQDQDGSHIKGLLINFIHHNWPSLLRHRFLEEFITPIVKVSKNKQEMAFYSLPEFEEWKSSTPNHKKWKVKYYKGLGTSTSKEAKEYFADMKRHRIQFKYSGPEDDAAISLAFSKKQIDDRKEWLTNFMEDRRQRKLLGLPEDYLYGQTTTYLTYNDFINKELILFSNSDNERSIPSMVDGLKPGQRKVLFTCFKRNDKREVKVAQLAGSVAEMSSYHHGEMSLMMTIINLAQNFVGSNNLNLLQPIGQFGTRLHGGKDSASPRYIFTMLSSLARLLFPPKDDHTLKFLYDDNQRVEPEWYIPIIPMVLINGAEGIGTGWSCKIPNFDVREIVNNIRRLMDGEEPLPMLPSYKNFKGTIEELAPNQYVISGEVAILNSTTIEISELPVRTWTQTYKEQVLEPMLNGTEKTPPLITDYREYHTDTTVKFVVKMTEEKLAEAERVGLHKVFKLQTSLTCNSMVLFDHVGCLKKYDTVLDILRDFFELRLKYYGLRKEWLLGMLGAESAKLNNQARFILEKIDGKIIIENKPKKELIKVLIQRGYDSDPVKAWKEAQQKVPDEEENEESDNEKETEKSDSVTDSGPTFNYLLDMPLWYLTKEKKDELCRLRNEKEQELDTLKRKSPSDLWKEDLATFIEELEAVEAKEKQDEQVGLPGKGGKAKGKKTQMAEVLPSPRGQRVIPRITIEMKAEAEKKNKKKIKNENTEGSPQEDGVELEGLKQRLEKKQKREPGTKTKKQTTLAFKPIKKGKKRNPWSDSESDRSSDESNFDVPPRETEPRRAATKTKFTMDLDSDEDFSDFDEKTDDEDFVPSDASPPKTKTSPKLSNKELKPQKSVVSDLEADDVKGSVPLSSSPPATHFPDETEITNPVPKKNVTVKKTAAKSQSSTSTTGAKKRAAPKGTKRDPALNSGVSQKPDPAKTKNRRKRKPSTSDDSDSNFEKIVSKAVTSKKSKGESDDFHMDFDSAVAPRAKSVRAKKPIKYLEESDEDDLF

Consider `O=C1c2ccccc2C(=O)C1C(=O)C(c1ccccc1)c1ccccc1` [NCI-9138, 2-(diphenylacetyl)-1H-indene-1,3(2H)-dione], for which the “Nuclear export of p53” value in assay [1] is given as “did not prevent export of p53”. For the same compound, the IC50 (usually the midpoint of a concentration-inhibition curve) in assay [2] stood at 22.2 µM; in assay [3] it was 29.2 µM. Further, in assay [4] (20 hours, high-density (plateau) MM cells), the “Nuclear export of topo IIα by immunofluorescence” value is listed as “overlapping staining of topo II with DAPI”. Also, the “Fold-increase nuclear topo IIα” value in assay [4] (H929 cells, nucleus v cytoplasm fluorescence vs untreated high-density controls) is recorded as 2.61 fold.
